# Entries after “also recorded” stand apart in the source; their conditions may differ. Marks after values point to notes of the source that are not given here.
# Assays:
# [1] = Cytotoxicity (MTT) on normal MRC-5 fibroblasts; assay type: cell-based; details: human
# Outline: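 Adherent MRC-5 human embryonal lung fibroblasts in EMEM exposed to two-fold dilutions (0.19–100 μM) for 24 h at 37 °C. MTT added for 4 h, then SDS/HCl overnight; OD read at 540 nm (ref. 630 nm). IC50 from non-linear regression of triplicate experiments.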
# [2] = tested on: Colo 205 human colonic adenocarcinoma cell line; assay: Cytotoxicity (MTT) on sensitive Colo 205 cells; assay type: cell-based; details: for IC50: Homo sapiens, COLO 205, 24 h, MTT, read-out: Colo 205 (IC50 µM) Mean; for SI MRC-5/Colo 205: ratio IC50 non-tumour cells / IC50 cancer cells
# Outline: (§1)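 10^4 cells/well in RPMI-1640 were exposed to two-fold serial dilutions (0.19–100 μM) for 24 h at 37 °C. MTT was added for 4 h, then SDS/HCl overnight, with OD read at 540 nm (ref. 630 nm). IC50 = dose giving 50% growth reduction, from non-linear regression of triplicates.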
# [3] = tested on: HeLa (cervical adenocarcinoma); assay: Cytotoxicity on HeLa cells; assay type: cell-based, human; details: ratio IC50 non-tumour cells / IC50 cancer cells
# B16 (skin melanoma) = assay: Cytotoxicity on B16 cells; assay type: cell-based, murine; details: Mus musculus
# [4] = tested on: resistant Colo 320 colon adenocarcinoma cells expressing the ABCB1 transporter; assay: Checkerboard combination assay with doxorubicin; assay type: cell-based, human; details: for Interaction with doxorubicin: in at least one of the ratios tested
# [5] = tested on: Colo 320/MDR-LRP human colonic adenocarcinoma cell line; assay: Cytotoxicity (MTT) on resistant Colo 320 cells; assay type: cell-based; details: for IC50: Homo sapiens, COLO 320, 24 h, MTT, read-out: Colo 320 (IC50 µM) Mean; for SI MRC-5/Colo 320: ratio IC50 non-tumour cells / IC50 cancer cells
# Outline: as §1
# [6] = tested on: HeLa (cervical adenocarcinoma); assay: Cytotoxicity on HeLa cells; assay type: cell-based; details: Homo sapiens
# [7] = tested on: HepG2 (hepatocellular carcinoma); assay: Cytotoxicity on HepG2 cells; assay type: cell-based; details: Homo sapiens
# [8] = ratio 1.2:1, starting conc. 10 µM
# [9] = ratio 2.4:1, starting conc. 10 µM
# [10] = ratio 4.8:1, starting conc. 10 µM
# [11] = ratio 9.6:1, starting conc. 10 µM
# [12] = ratio 19.2:1, starting conc. 10 µM
# [13] = ratio 38.4:1, starting conc. 10 µM
SMILES,IC50 at 24 h [1] [µM],IC50 [2] [µM],SI MRC-5/Colo 205 [2],SI MRC-5/HeLa [3],IC50 (B16 (skin melanoma)) [µM],Interaction with doxorubicin [4],IC50 [5] [µM],SI MRC-5/Colo 320 [5],IC50 [6] [µM],IC50 [7] [µM],"Type of Interaction [4, 8]","Type of Interaction [4, 9]","Type of Interaction [4, 10]","Type of Interaction [4, 11]","Type of Interaction [4, 12]","Type of Interaction [4, 13]",other results
"N#CC[Se]C(=O)c1cccc(F)c1 [N2, Se-(Cyanomethyl) 3-Fluorobenzoselenoate]",> 100,2.96,>6 *,>6 *,2.6,synergistic manner; also recorded: synergistic effect,7.01,>6 *,5.2,5.6,–,–,–,–,–,–,"Type of Interaction ([4]; ratio 1.7:1, starting conc. 15 µM): Synergism; Type of Interaction ([4]; ratio 3.4:1, starting conc. 15 µM): Antagonism; Type of Interaction ([4]; ratio 6.8:1, starting conc. 15 µM): Synergism; Type of Interaction ([4]; ratio 13.6:1, starting conc. 15 µM): Moderate antagonism; Type of Interaction ([4]; ratio 27.2:1, starting conc. 15 µM): Antagonism; Type of Interaction ([4]; ratio 54.4:1, starting conc. 15 µM): Antagonism"
"N#CC[Se]C(=O)c1ccc(Br)cc1 [N3, Se-(Cyanomethyl) 4-Bromobenzoselenoate]",> 100,2.1,>6 *,>6 *,2.8,synergistic manner; also recorded: synergistic effect,4.37,>6 *,2.4,9.6,Antagonism,Strong antagonism,Moderate synergism,Additive effect,Slight antagonism,Moderate antagonism,–
"N#CC[Se]C(=O)c1ccccc1C(F)(F)F [N4, Se-(Cyanomethyl) 2-(Trifluoromethyl)benzoselenoate]",> 100,1.97,–,>6 *,1.4,synergistic manner; also recorded: synergistic effect,5.57,>6 *,2.5,5.2,Antagonism,Strong antagonism,Moderate synergism,Additive effect,Slight antagonism,Moderate antagonism,–
"N#CC[Se]C(=O)c1cc(C(F)(F)F)cc(C(F)(F)F)c1 [N7, Se-(Cyanomethyl) 3,5-Bis(trifluoromethyl)benzoselenoate]",> 100,1.98,–,>6 *,1.6,synergistic manner; also recorded: synergistic effect,3.78,>6 *,2.1,11.8,–,–,–,–,–,–,"Type of Interaction ([4]; ratio 0.9:1, starting conc. 8 µM): Antagonism; Type of Interaction ([4]; ratio 1.8:1, starting conc. 8 µM): Strong antagonism; Type of Interaction ([4]; ratio 3.6:1, starting conc. 8 µM): Slight synergism; Type of Interaction ([4]; ratio 7.2:1, starting conc. 8 µM): Antagonism; Type of Interaction ([4]; ratio 14.4:1, starting conc. 8 µM): Antagonism; Type of Interaction ([4]; ratio 28.8:1, starting conc. 8 µM): Additive effect"
